Test results taken from patent US12023329B2, “Methods for the treatment of diseases associated with activation of inflammasomes” (Chang Gung University, priority 2020, dated 2024).

Assays:
LPS-primed d-THP-1 cells [1] = assay: Nigericin-induced IL-1β secretion in LPS-primed d-THP-1 cells (ELISA); format: cell-based, Human; conditions: rebastinib 0.01-1 μM, 30 min pre-incubation, nigericin 5 μM 30 min, IL-1β in supernatant by ELISA
Experimental: (§1) Human monocytic cell line THP-1 was purchased from American Type Culture Collection (ATCC) and maintained in RPMI-1640 Medium supplemented with 10% fetal bovine serum (FBS), 1% antibiotic-antimycotic solution, 0.1% (3-mercaptoethanol ((3-ME), and phenol red indicator in an incubator at 37° C. with 5% CO2. The medium was changed every 2-3 days.
(§2) To induce differentiation, THP-1 cells (cell density was about 5×10^5/mL) was cultivated in a serum-free medium containing 100 nM of phorbol 12-myristate 13-acetate (PMA) for about 4 hr. Then, the PMA-containing medium was replaced with a fresh RPMI-1640 medium, and the cultivation was continued for another 2 days to allow the THP-1 cells to differentiate into macrophage-like cells, hereafter termed “d-THP-1 cells.”
(§3) d-THP1 cells were first treated with 100 ng/mL of lipopolysaccharide (LPS) for 3 hr, then LPS-containing medium was replaced by a fresh medium. […]
(§4) The level of IL-1β and IL-18 was independently determined by ELISA assay kit (R&D system) in accordance with the manufacturer's protocol. The level of […] and IL-18 was determined from the 450 and 540 nm absorbance measured by Multiskan GO multiplate reader. […]

LPS-primed d-THP-1 cells [2] = assay: MSU-induced IL-1β secretion in LPS-primed d-THP-1 cells (ELISA); format: cell-based, Human; conditions: rebastinib 0.003-1 μM, 30 min pre-incubation, MSU 100 μg/ml 4 hr
Experimental: as §1, §2, §3, §4

LPS-primed d-THP-1 cells [3] = assay: Imiquimod-induced IL-1β secretion in LPS-primed d-THP-1 cells (ELISA); format: cell-based, Human; conditions: rebastinib 0.003-1 μM, 30 min pre-incubation, IMQ 100 μM 2 hr
Experimental: as §1, §2, §3, §4

LPS-primed d-THP-1 cells [4] = assay: Nigericin-induced IL-18 secretion in LPS-primed d-THP-1 cells (ELISA); format: cell-based, Human; conditions: rebastinib 0.01-1 μM, 30 min pre-incubation, nigericin 5 μM 30 min
Experimental: as §1, §2, §3, §4

LPS-primed d-THP-1 cells [5] = assay: Nigericin-induced pyroptotic cell death observed by field emission scanning electron microscopy; format: cell-based, Human; conditions: rebastinib 1 μM or glibenclamide 50 μM, 30 min, nigericin 5 μM 30 min, SEM images
Experimental: d-THP-1 cells (treated with LPS, the tested compounds, and the stimulant as described above or untreated) were fixed, in sequence, by use of 4% paraformaldehyde and 2.5% glutaraldehyde, respectively for 10 min, washed with PBS, then reacted with osmium tetroxide (OsO4) for 30 min; the cells were thoroughly washed with distilled water, then incubated with tannic acid for 30 min. […] Repeated the 100% ethanol dehydration step 3 times. The specimens were then dried with a mixture of CO2 and ethanol supercritical condition using Critical Point Dryer (CPD) (LEICAME CPD 300). The dried specimens were subsequently fixed on an alumina platform, and sputted with gold ions (ion sputter, JEOL JFC-1100E, operated at 1-2 mA for 60 sec) before subjecting to observation under Field Emission Scanning Electron Microscope (FE-SEM).
(§5) Pyroptosis is a form of programmed cell death. In this process, immune cells recognize foreign danger signals within themselves, release pro-inflammatory cytokines, swell, burst, and die. In this example, the effects of the present compound on nigericin-induced pyroptotic cell death and LDH release were investigated, in which the pyroptosis phenomena was observed using Field Emission Scanning Electron Microscope, and LDH level was determined by enzymatic assay.

LPS-primed d-THP-1 cells [6] = assay: Nigericin-induced pyroptotic LDH release; format: cell-based, Human; conditions: rebastinib 0.01-1 μM, 30 min, nigericin 5 μM 30 min
Experimental: as §5

LPS-primed d-THP-1 cells [7] = assay: Nigericin-induced ASC speck formation (fluorescent microscopy); format: cell-based, Human; conditions: rebastinib 1 μM or glibenclamide 50 μM, 30 min, nigericin 5 μM 30 min, anti-ASC staining
Experimental: d-THP-1 cells (treated with LPS, the tested compound, and the stimulant as described above or untreated) were fixed by 4% paraformaldehyde, washed with PBS (3 times), treated with Triton-X-100 (0.1%) for 10 min, washed with PBS (3 times), added 5% BSA for 1 hr, then washed with PBS (3 times) before the primary antibody (anti-ASC) was added. The primary anti-ASC antibody labeled cells were incubated at 4° C. overnight, then was labeled with the secondary antibody at RT for 1 hr, washed with PBS (3 times), added Hoechst 33342, washed with PBS (3 times), added ProLong™ Gold antifade reagent, then photographed using Fluorescent Microscope (IX81 Olympus, with Lumen 200 Fluorescence Illumination System). A hallmark of inflammasome activation is the ASC speck, a micrometre-sized structure formed by the inflammasome adaptor protein ASC (apoptosis-associated speck-like protein containing a CARD), which consists of a pyrin domain (PYD) and a caspase recruitment domain (CARD). In this example, the effect of the present compound on nigericin-induced formation of ASC speck in LPS-primed d-THP-1 cells was observed using fluorescence microscope, and results are illustrated in FIG. 8.

[8] = test system: LPS/D-GalN-induced acute liver failure in mice; assay: Animal model of LPS/D-GalN-induced acute liver failure; format: in vivo, mice (C57BL/6); conditions: for acute liver failure: liver bleeding and inflammation (gross liver morphology): rebastinib 5 or 10 mg/kg i.v. 1 hr before LPS (40 μg/kg)/D-GalN (400 mg/kg) i.p.
Experimental: (§6) C57BL/6 mice (7-10-week-old, each weighted about 20-25 g) were maintained in micro-isolator units on a standard laboratory diet. Animals were housed under humidity- and temperature-controlled conditions and the light/dark cycle was set at 12-hr intervals, maintained under specified and opportunistic pathogen-free conditions. All animal studies were conducted under protocol approved by the Animal Care and Use Committee of Chang Gung University (Taipei, Taiwan).
Mice were randomly divided into 4 groups. The test compound rebastinib (5 or 10 mg/Kg) or a control solvent (80% saline, 10% ethanol, 10% Tween-20) was injected through the tail vein of each mice. The mice were allowed to rest for 1 hr, then LPS ([…])/D-GalN (400 mg/Kg) was injected through abdominal space for 5 hr to induce acute liver failure. Blood samples and tissue samples were respectively collected. Blood samples were analyzed for their respective levels of LDH, AST, ALT, BUN, and CRE. The livers were fixed in 10% formalin for tissue section. The liver sections were stained with hematoxylin and eosin (H&E).
In this example, animal model of acute liver failure was used to investigate the effect of the present compound on acute liver failure. Briefly, animals were first subjected to LPS/D-GalN treatment (LPS: 40 […]) to create acute liver failure, then blood and tissue samples with or without treatment of the present compound were taken, which were then subjected to biochemistry and microscopy analysis.

LPS-induced ALI in mice = assay: Animal model of LPS-induced acute lung injury (ALI); format: in vivo, mice (C57BL/6); conditions: rebastinib 10 mg/kg i.v. 1 hr before intra-tracheal LPS 2 mg/kg, lungs collected 5 hr later
Experimental: as §6
ALI was induced by intra-tracheal spray of 2 mg/kg LPS in 7-8 weeks old C57BL/6 mice. Mice were fasted overnight and then intravenously injected with 50 ul of rebastinib (10 mg/kg) or an equal volume of solvent (vehicle). After 1 hr, mice were instilled with an intra-tracheal spray of 2 mg/kg LPS (dissolved in 40 μl 0.9% saline) or 0.9% saline under anesthesia. 5 hr later, mice were sacrificed and the lungs were collected. The lungs were fixed in 10% formalin for tissue section. The lung sections were stained with hematoxylin and eosin (H&E).
In this example, animal model of ALI was used to investigate the effect of the present compound on ALI. Mice were intravenously injected with 50 ul of rebastinib (10 mg/kg) or an equal volume of solvent (vehicle). After 1 hr, mice were instilled with an intra-tracheal spray of 2 mg/kg LPS (dissolved in 40 μl 0.9% saline) or 0.9% saline under anesthesia. […]

[9] = rebastinib 5 or 10 mg/kg i.v., LPS/D-GalN i.p. 5 hr

Molecule: 4-[4-[(5-tert-butyl-2-quinolin-6-ylpyrazol-3-yl)-carbamoylamino]-3-fluorophenoxy]-N-methylpyridine-2-carboxamide [rebastinib]
- nigericin-induced IL-1β secretion (LPS-primed d-THP-1 cells [1]): inhibited
- nigericin-induced IL-1β secretion (LPS-primed d-THP-1 cells [1]; listed as present compound): significantly reduced
- MSU-induced IL-1β secretion (LPS-primed d-THP-1 cells [2]): inhibited
- MSU-induced IL-1β secretion (LPS-primed d-THP-1 cells [2]; listed as present compound): suppressed
- imiquimod-induced IL-1β secretion (LPS-primed d-THP-1 cells [3]): inhibited
- imiquimod-induced IL-1β secretion (LPS-primed d-THP-1 cells [3]; listed as present compound): suppressed
- nigericin-induced IL-18 secretion (LPS-primed d-THP-1 cells [4]): inhibited
- nigericin-induced IL-18 secretion (LPS-primed d-THP-1 cells [4]; listed as present compound): significantly reduced
- nigericin-induced pyroptotic cell death (swelling, bubbles, lysis) (LPS-primed d-THP-1 cells [5]): inhibited
- nigericin-induced pyroptotic cell death (swelling, bubbles, lysis) (LPS-primed d-THP-1 cells [5]; listed as present compound): significantly reduced
- nigericin-induced pyroptotic LDH release (LPS-primed d-THP-1 cells [6]): inhibited
- nigericin-induced pyroptotic LDH release (LPS-primed d-THP-1 cells [6]; listed as present compound): inhibitory effect
- nigericin-induced ASC speck formation (LPS-primed d-THP-1 cells [7]): inhibited
- nigericin-induced ASC speck formation (LPS-primed d-THP-1 cells [7]; listed as present compound): greatly reduced
- acute liver failure: liver bleeding and inflammation (gross liver morphology) ([8]; 5 hr): attenuated
- acute liver failure: liver bleeding and inflammation (gross liver morphology) ([8]; 5 hr, listed as present compound): significant attenuation
- liver tissue weight ([8]; rebastinib 5 or 10 mg/kg i.v. 1 hr before LPS/D-GalN i.p., 5 hr): decreases
- serum ALT level [8, 9]: decreased significantly
- serum AST level [8, 9]: decreased significantly
- serum CRE level [8, 9]: decreased significantly
- serum LDH level [8, 9]: decreased significantly
- serum biochemical parameters (AST, ALT, BUN, CRE, LDH) ([8]; rebastinib 5 or 10 mg/kg i.v., LPS/D-GalN i.p. 5 hr, clinical chemistry analyzer): attenuated
- LPS-induced lung morphology change and infiltration (H&E) (LPS-induced ALI in mice): significantly attenuated
- LPS-induced lung morphology change and infiltration (H&E) (LPS-induced ALI in mice; listed as Rebastinib): attenuated

Molecule: COc1ccc(Cl)cc1C(=O)NCCc1ccc(S(=O)(=O)NC(=O)NC2CCCCC2)cc1 [glibenclamide]
- nigericin-induced pyroptotic cell death (swelling, bubbles, lysis) (LPS-primed d-THP-1 cells [5]): significantly reduced
- nigericin-induced ASC speck formation (LPS-primed d-THP-1 cells [7]): greatly reduced
